{
  "source": "paper PMC11873722",
  "about": "(Cancer Discovery, 2024)",
  "key": {"[1]": {"target": "RAF1(RBD):KRAS^G12C(ON) interaction in MIA PaCa-2 cells (Homo sapiens, UniProt P01116, G12C)", "sequence (P01116 1-188 isoform P01116-2 G12C)": "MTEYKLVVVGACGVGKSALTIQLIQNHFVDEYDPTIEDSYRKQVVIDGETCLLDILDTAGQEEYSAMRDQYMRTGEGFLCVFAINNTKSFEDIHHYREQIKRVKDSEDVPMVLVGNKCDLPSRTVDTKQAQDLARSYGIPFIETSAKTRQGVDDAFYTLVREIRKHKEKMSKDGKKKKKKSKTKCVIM", "experiment": "RAS:RAF ELISA assay in MIA PaCa-2 cells", "format": "cell-based", "conditions": "1 µmol/L"}, "KRAS^G12C NSCLC": {"system": "KRAS^G12C NSCLC", "conditions": "patients with NSCLC with prior KRAS^G12C(OFF)-only inhibitor treatment; cited from earlier work"}, "[2]": {"experiment": "Free drug exposure in LUN055 PDX study", "format": "in vivo, mouse"}},
  "data": [
    {"compound": "C=CC(=O)N1CCN(c2nc(OC[C@@H]3CCCN3C)nc3c(F)c(-c4nc(N)cc(C)c4C(F)(F)F)c(Cl)cc23)[C@@H](C)C1", "note": "[GDC-6036]", "values": [
      {"measurement": "time required to achieve maximal activity", "setting": "[1]", "result": "more than 60 minutes"}
    ]},
    {"compound": "CCn1c(-c2cccnc2[C@H](C)OC)c2c3cc(ccc31)N1CCO[C@@H](C[C@H](NC(=O)[C@H](C(C)C)N(C)C(=O)C3(F)CCN(C(=O)C#CC(C)(C)N(C)C)CC3)C(=O)N3CCC[C@H](N3)C(=O)OCC(C)(C)C2)C1", "note": "[RMC-6291]", "values": [
      {"measurement": "objective response rate", "setting": "KRAS^G12C NSCLC", "result": 50, "unit": "%"}
    ]},
    {"compound": "C=CC(=O)N1CCN(c2nc(=O)n(-c3c(C)ccnc3C(C)C)c3nc(-c4c(O)cccc4F)c(F)cc23)[C@@H](C)C1", "note": "[Sotorasib]", "values": [
      {"measurement": "free AUC0–24 hours", "setting": "[2]; 100 mg/kg sotorasib", "result": "1,563 hours × ng/mL"},
      {"measurement": "free drug concentration higher compared with BBO-8520", "setting": "[2]; 100 mg/kg sotorasib vs 30 mg/kg BBO-8520", "result": 20, "unit": "fold"}
    ]}
  ]
}
